37 molecules from patent US20240050577A1, “CDK INHIBITORS AND PHARMACEUTICAL USES THEREOF” (RISEN (SUZHOU) PHARMA TECH CO., LTD., priority 2022, published 2024) can be followed below.

Some results are limits rather than exact numbers.

The first assay has as its system OVCAR3 cells. Briefly: Cell proliferation study (Cell Titer Glo, 72 h). The class given is cell-based. The conditions noted are these: Homo sapiens, OVCAR-3, luminescence, read-out: IC50, inhibitory effect on cellular proliferation. As for the experimental part: OVCAR3 (Cobioer, CBP60294) cell line in logarithmic growth phase was used for these experiments. The cell density was adjusted to 1.1×10^4/mL and the cells were inoculated into a 96-well cell culture plate (Corning, 3599), 95 μL per well (the number of cells per well was 1×10^3). The culture plate was placed in an incubator, with 5% carbon dioxide, at 37° C. and incubated overnight. On the next day, a 10 mM stock solution of test compound was prepared in DMSO (Sigma, RNBF5902). After gradient dilution, a series of working solutions with different concentrations of test compound was prepared using complete medium. Working solution was added into the corresponding wells of the orifice plate, and the plate was placed in a 5% carbon dioxide incubator and cultivated at 37° C. for 72 h, and then removed from the incubator. To each well was added 50 μL Cell Tier Glo (Promega, G7573), and the plate was incubated at room temperature for 10 min, followed by luminescence detection with an enzyme marker. The inhibition curve was obtained with GraphPad 7.0 software using four-parameter equation.
Regarding `Cc1nc2c(F)cc(-c3nc(Nc4ccc(S(=O)(=O)N5CC(C(=O)N6CCC7(CC6)CCN(c6cccc8c6C(=O)N(C6CCC(=O)NC6=O)C8=O)CC7)C5)cc4)ncc3F)cc2n1C(C)C` (stereo not shown) [Compound 40], the IC50 is greater than 10000 nM. As for `Cc1nc2c(F)cc(-c3nc(NC4CCN(S(=O)(=O)C5CCN(C(=O)C6CCN(c7cc8c(cc7F)C(=O)N(C7CCC(=O)NC7=O)C8=O)CC6)CC5)CC4)ncc3F)cc2n1C(C)C` (stereo not shown) [Compound 74], the IC50 lay in the range of 1000 to 5000 nM. For the molecule `CC(C)N1CCOc2c(F)cc(-c3nc(Nc4ccc(C5CCN(C(=O)CCCCCCCCOc6cccc7c6C(=O)N(C6CCC(=O)NC6=O)C7=O)CC5)cn4)ncc3F)cc21` (stereo not shown) [Compound 7], the IC50 is greater than 10000 nM. Turning to `C[C@@]1(O)CCC[C@H]1n1c(=O)ccc2cnc(NC3CCN(S(=O)(=O)C4CCN(C5CC6(CCN(c7cccc8c7C(=O)N(C7CCC(=O)NC7=O)C8=O)CC6)C5)CC4)CC3)nc21` (stereo partly shown) [Compound 107], the IC50 is 101 to 1000 nM. The same measure, in the same setting: the figure for `Cc1nc2c(F)cc(-c3nc(Nc4ccc(S(=O)(=O)NCCOCCOCCOCCNc5cccc6c5C(=O)N(C5CCC(=O)NC5=O)C6=O)cc4)ncc3F)cc2n1C(C)C` (stereo not shown) [Compound 48] is 1000 to 5000 nM; for `CC(C)N1CCOc2c(F)cc(-c3nc(Nc4ccc(C5CCN(CCOCCOCCOCCNc6cccc7c6C(=O)N(C6CCC(=O)NC6=O)C7=O)CC5)cn4)ncc3F)cc21` (stereo not shown) [Compound 6] it is 1000 to 5000 nM; for `Cc1nc2c(F)cc(-c3nc(NC4CCN(S(=O)(=O)C5CN(CC6CN(c7cc8c(cc7F)C(=O)N(C7CCC(=O)NC7=O)C8=O)C6)C5)CC4)ncc3F)cc2n1C(C)C` (stereo not shown) [Compound 109] it is 1000 to 5000 nM.

Consider `CC(C)N1CCOc2c(F)cc(-c3nc(Nc4ccc(C5CCN(CCCCCCOc6cccc7c6C(=O)N(C6CCC(=O)NC6=O)C7=O)CC5)cn4)ncc3F)cc21` (stereo not shown) [Compound 28], for which the IC50 was greater than 10000 nM.

As to `CC(C)N1CCOc2c(F)cc(-c3nc(Nc4ccc(C5CCN(C(=O)COCCOCCNc6cccc7c6C(=O)N(C6CCC(=O)NC6=O)C7=O)CC5)cn4)ncc3F)cc21` (stereo not shown) [Compound 5], the IC50 was less than 100 nM.

For `Cc1nc2c(F)cc(-c3nc(Nc4ccc(S(=O)(=O)C5CCN(C6CC7(CCN(c8cc9c(cc8F)C(=O)N(C8CCC(=O)NC8=O)C9=O)CC7)C6)CC5)cc4)ncc3F)cc2n1C(C)C` (stereo not shown) [Compound 46], the IC50 lay within 101 to 1000 nM.

Turning to `C[C@@]1(O)CCC[C@H]1n1c(=O)ccc2cnc(NC3CCN(S(=O)(=O)C4CCN(CC5CCN(c6cc7c(cc6F)C(=O)N(C6CCC(=O)NC6=O)C7=O)CC5)CC4)CC3)nc21` (stereo partly shown) [Compound 93], the IC50 lay within 1000 to 5000 nM. Still for that read-out and setting: the figure for `Cc1nc2c(F)cc(-c3nc(Nc4ccc(S(=O)(=O)N5CCN(CC6CCN(c7ccc8c(c7)C(=O)N(C7CCC(=O)NC7=O)C8=O)CC6)CC5)cc4)ncc3F)cc2n1C(C)C` (stereo not shown) [Compound 68] is 101 to 1000 nM.

Turning to `C[C@@]1(O)CCC[C@H]1n1c(=O)ccc2cnc(NC3CCN(S(=O)(=O)C4CCN(C5CC(C6CCN(c7cc8c(cc7F)C(=O)N(C7CCC(=O)NC7=O)C8=O)CC6)C5)CC4)CC3)nc21` (stereo partly shown) [Compound 96], the IC50 was greater than 10000 nM. Still for that read-out and setting: the figure for `Cc1nc2c(F)cc(-c3nc(Nc4ccc(S(=O)(=O)C5CCN(C6CN(C7CCN(c8cc9c(cc8F)C(=O)N(C8CCC(=O)NC8=O)C9=O)CC7)C6)CC5)cc4)ncc3F)cc2n1C(C)C` (stereo not shown) [Compound 66] is less than 100 nM. As to `C[C@@]1(O)CCC[C@H]1n1c(=O)ccc2cnc(NC3CCN(S(=O)(=O)C4CCN(C(=O)C5CCC6(CC5)CCN(c5cc7c(cc5F)C(=O)N(C5CCC(=O)NC5=O)C7=O)CC6)CC4)CC3)nc21` (stereo partly shown) [Compound 78], the IC50 lay in the range of 101 to 1000 nM. Consider `Cc1nc2c(F)cc(-c3nc(NC4CCN(S(=O)(=O)C5CCN(CC6CC7(CCN(c8cc9c(cc8F)C(=O)N(C8CCC(=O)NC8=O)C9=O)CC7)C6)CC5)CC4)ncc3F)cc2n1C(C)C` (stereo not shown) [Compound 98], for which the IC50 fell in the range of 101 to 1000 nM.

As to `Cc1nc2c(F)cc(-c3nc(N[C@@H]4CCN(S(=O)(=O)C5CCN(CC6CCN(c7cc8c(cc7F)C(=O)N(C7CCC(=O)NC7=O)C8=O)CC6)CC5)C[C@H]4O)ncc3F)cc2n1C(C)C` (stereo partly shown) [Compound 111], the IC50 is less than 100 nM.

For the molecule `Cc1nc2c(F)cc(-c3nc(NC4CCN(S(=O)(=O)C5CCN(CC6CCN(c7cc8c(cc7F)C(=O)N(C7CCC(=O)NC7=O)C8=O)C6)CC5)CC4)ncc3F)cc2n1C(C)C` (stereo not shown) [Compound 108], the IC50 was less than 100 nM.

For the molecule `CC(C)N1CCOc2c(F)cc(-c3nc(Nc4ccc(S(=O)(=O)N5CCC(NC(=O)C6CCN(c7cccc8c7C(=O)N(C7CCC(=O)NC7=O)C8=O)CC6)CC5)cc4)ncc3F)cc21` (stereo not shown) [Compound 73], the IC50 was greater than 10000 nM.

Consider `Cc1nc2c(F)cc(-c3nc(NC4CCN(S(=O)(=O)C5CCN(CC6CCN(c7cc8c(cc7F)C(=O)N(C7CCC(=O)NC7=O)C8=O)CC6)CC5)CC4)ncc3F)cc2n1C(C)C` (stereo not shown) [Compound 71], for which the IC50 was less than 100 nM. Still for that read-out and setting: the figure for `C[C@@]1(O)CCC[C@H]1n1c(=O)ccc2cnc(Nc3ccc(S(=O)(=O)C4CCN(C5CC6(C5)CN(c5cc7c(cc5F)C(=O)N(C5CCC(=O)NC5=O)C7=O)C6)CC4)cc3)nc21` (stereo partly shown) [Compound 76] is greater than 10000 nM; for `Cc1nc2c(F)cc(-c3nc(Nc4ccc(S(=O)(=O)N5CCC6(CCN(C(=O)CNc7cc8c(cc7F)C(=O)N(C7CCC(=O)NC7=O)C8=O)CC6)CC5)cc4)ncc3F)cc2n1C(C)C` (stereo not shown) [Compound 105] it is 101 to 1000 nM. In the case of `C[C@@]1(O)CCC[C@H]1n1c(=O)c(C(F)F)cc2cnc(NC3CCN(S(=O)(=O)C4CCN(C5CC6(CCN(c7cc8c(cc7F)C(=O)N(C7CCC(=O)NC7=O)C8=O)CC6)C5)CC4)CC3)nc21` (stereo partly shown) [Compound 35], the IC50 is 101 to 1000 nM.

For `CC(C)N1CCOc2c(F)cc(-c3nc(Nc4ccc(S(=O)(=O)NCCOCc5cn(CCOCCOCCNc6cc7c(cc6F)C(=O)N(C6CCC(=O)NC6=O)C7=O)nn5)cc4)ncc3F)cc21` (stereo not shown) [Compound 21, N-[2-[[1-[2-[2-[2-[[2-(2,6-dioxo-3-piperidyl)-6-fluoro-1,3-dioxo-isoindolin-5-yl]amino]ethoxy]ethoxy]ethyl]triazol-4-yl]methoxy]ethyl]-4-[[5-fluoro-4-(8-fluoro-4-isopropyl-2,3-dihydro-1,4-benzoxazin-6-yl)pyrimidin-2-yl]amino]benzenesulfonamide], the IC50 is 1000 to 5000 nM.

For the molecule `Cc1nc2c(F)cc(-c3nc(Nc4ccc(S(=O)(=O)NCCOCCOCCNc5cccc6c5C(=O)N(C5CCC(=O)NC5=O)C6=O)cc4)ncc3F)cc2n1C(C)C` (stereo not shown) [Compound 49], the IC50 was in the range of 1000 to 5000 nM. For the molecule `Cc1nc2c(F)cc(-c3nc(Nc4ccc(S(=O)(=O)N5CCN(C6CCN(C7CN(c8cccc9c8C(=O)N(C8CCC(=O)NC8=O)C9=O)C7)CC6)CC5)cc4)ncc3F)cc2n1C(C)C` (stereo not shown) [Compound 56], the IC50 was in the range of 1000 to 5000 nM.

For `CC(C)[C@@H]1CC[C@@H](C)C[C@H]1OCC(=O)NCCS(=O)(=O)N1CCC(Nc2ncc(F)c(-c3cc(F)c4c(c3)N(C(C)C)CCO4)n2)CC1` [Compound 27], the IC50 was greater than 10000 nM. The same measure, in the same setting: the figure for `Cc1nc2c(F)cc(-c3nc(Nc4ccc(S(=O)(=O)NCCOCCNc5cc6c(cc5F)C(=O)N(C5CCC(=O)NC5=O)C6=O)cc4)ncc3F)cc2n1C(C)C` (stereo not shown) [Compound 70] is 101 to 1000 nM; for `CC(C)N1CCOc2c(F)cc(-c3nc(Nc4ccc(S(=O)(=O)N5CCN(C6CCN(C7CN(c8cccc9c8C(=O)N(C8CCC(=O)NC8=O)C9=O)C7)CC6)CC5)cc4)ncc3F)cc21` (stereo not shown) [Compound 55] it is greater than 10000 nM.

Take `CC(C)N1CCOc2c(F)cc(-c3nc(Nc4ccc(S(=O)(=O)N5CCN(C(=O)C6CCN(c7cccc8c7C(=O)N(C7CCC(=O)NC7=O)C8=O)CC6)CC5)cc4)ncc3F)cc21` (stereo not shown) [Compound 53]: the IC50 is greater than 10000 nM. Same read-out and setting: the figure for `C[C@@]1(O)CCC[C@H]1n1c(=O)c(Cl)cc2cnc(NC3CCN(S(=O)(=O)C4CCN(C5CC6(CCN(c7cc8c(cc7F)C(=O)N(C7CCC(=O)NC7=O)C8=O)CC6)C5)CC4)CC3)nc21` (stereo partly shown) [Compound 34] is greater than 10000 nM; for `C[C@@]1(O)CCC[C@H]1n1c(=O)ccc2cnc(NC3CCN(S(=O)(=O)C4CCN(CC5CC6(CCN(c7cc8c(cc7F)C(=O)N(C7CCC(=O)NC7=O)C8=O)CC6)C5)CC4)CC3)nc21` (stereo partly shown) [Compound 82] it is 101 to 1000 nM; for `C[C@@]1(O)CCC[C@H]1n1c(=O)ccc2cnc(NC3CCN(S(=O)(=O)N4CCN(CC5CCN(c6cc7c(cc6F)C(=O)N(C6CCC(=O)NC6=O)C7=O)C5)CC4)CC3)nc21` (stereo partly shown) [Compound 61] it is 101 to 1000 nM. On the same count and under the same terms, the figure for `Cc1nc2c(F)cc(-c3nc(Nc4ccc(S(=O)(=O)C5CCN(CC6CCN(c7cc8c(cc7F)C(=O)N(C7CCC(=O)NC7=O)C8=O)CC6)CC5)cc4)ncc3F)cc2n1C(C)C` (stereo not shown) [Compound 110] is 101 to 1000 nM; for `CC(C)N1CCOc2c(F)cc(-c3nc(NC4CCN(S(=O)(=O)C5CCN(CC6CCN(c7ccc8c(c7)C(=O)N(C7CCC(=O)NC7=O)C8=O)CC6)CC5)CC4)ncc3F)cc21` (stereo not shown) [Compound 19, 2-(2,6-dioxo-3-piperidyl)-5-[4-[[4-[[4-[[5-fluoro-4-(8-fluoro-4-isopropyl-2,3-dihydro-1,4-benzoxazin-6-yl)pyrimidin-2-yl]amino]-1-piperidyl]sulfonyl]-1-piperidyl]methyl]-1-piperidyl]isoindoline-1,3-dione] it is 101 to 1000 nM; for `C[C@@]1(O)CCC[C@H]1n1c(=O)ccc2cnc(NC3CCN(S(=O)(=O)C4CCN(CC5CCC6(CC5)CCN(c5cc7c(cc5F)C(=O)N(C5CCC(=O)NC5=O)C7=O)CC6)CC4)CC3)nc21` (stereo partly shown) [Compound 90] it is 101 to 1000 nM.

Still in this assay, the particulars now being: luminescence, read-out: IC50, inhibitory effect on cellular proliferation.
As for `CC(C)N1CCOc2c(F)cc(-c3nc(Nc4ccc(C5CCN(CCCCCCOc6cccc7c6C(=O)N(C6CCC(=O)NC6=O)C7=O)CC5)cn4)ncc3F)cc21` (stereo not shown) [Compound 3], the IC50 was greater than 10000 nM.
